According to US6251861A, “Treatment of cerebral infarction using cyclic hexapeptides” (Takeda Chemical Industries, Ltd., priority 1996, dated 2001):

Key:
[1] = system: endothelin A receptor / endothelin B receptor / endothelin converting enzyme; conditions: ETA: endothelin A receptor; ETB: endothelin B receptor; ECE: endothelin converting enzyme (inhibition); from the literature cited in the tables; cited from earlier work
[2] = system: total brain infarct models (gerbils, bilateral common carotid arteries obstructed for 15 minutes); test: Total brain infarct model, survival (Test Example 2); type: in vivo, gerbil; conditions: 3 mg/kg intraperitoneally twice (60 min before obstruction, 90 min after reperfusion), n=11, vehicle group 0%, p<0.05
Protocol: Mature male gerbils were divided into 2 groups and total brain infarct models were constructed by obstructing the bilateral common carotid arteries for 15 minutes (Nagisa et al., Basic Pharmacology & Therapeutics,23, 103-108, 1995). Control saline (vehicle) (Group A) and compound 2 (3 mg/kg) (Group B) were administered intraperitoneally twice, namely 60 minutes before obstruction and 90 minutes after reperfusion and the survival rates at 8 hours following reperfusion were compared between the groups. Intergroup comparison was made by ANOVA test (one-way analysis of variance).

Row | Molecule | Selectivity [1] | survival rate at 8 hours after reperfusion [2]
1 | 27-O-3-[2-(3-carboxy-acryloylamino)-5-hydroxyphenyl]-acryloyloxy myricerone, sodium salt [97-139] | ETA | 
2 | CCCc1cc(C(=O)O)ccc1OC(C(=O)NS(=O)(=O)c1ccc(C(C)C)cc1)c1ccc2c(c1)OCO2 (racemic) [L-749329, (±)N-(4-isopropylbenzenesulphonyl)-α-(4-carboxy-2-n-propylphenoxy)-3,4-methylene dioxyphenyl acetamide] | ETA | 
3 | CCCc1cc(C(=O)OC)ccc1CC(C(=O)NS(=O)(=O)c1ccc(C(C)C)cc1)c1ccc2c(c1)OCO2 (racemic) [L-751281, (±)N-[2-(3,4-methylenedioxyphenyl)-3-(4-carbomethoxy-2-propylphenyl)-propanoly]-4-(isopropyl)benzene sulphonamide] | ETA | 
4 | CCCc1cc(C(=O)O)ccc1OC(C(=O)NS(=O)(=O)c1ccc(C(C)C)cc1)c1ccc2c(c1)OCO2 (single isomer, unassigned; (-)) [L-754142, (-)N-(4-isopropylbenzenesulphonyl)-α-(4-carboxy-2-n-propylphenoxy)-3,4-methylene dioxyphenyl acetamide] | ETA | 
5 | CC1(C)CC[C@]2(C(=O)O)CC[C@]3(COC(=O)/C=C/c4ccc(O)c(O)c4)C(=CC[C@@H]4[C@@]5(C)CCC(=O)C(C)(C)[C@@H]5CC[C@]43C)[C@@H]2C1 [50-235, 27-O-caffeoyl myricerone] | ETA | 
6 | COC(=O)c1cc(O)cc(OC)c1Oc1cc(C)cc(O)c1C(=O)O [Asterric acid] | ETA | 
7 | Cc1noc(NS(=O)(=O)c2cccc3c(N(C)C)cccc23)c1C [BMS-182874, 5-(dimethylamino)-N-(3,4-dimethyl-5-isoxazolyl)-1-naphthalene sulphonamide] | ETA | 
8 | O=P(O)(O)CN[C@@H](Cc1ccc(-c2ccccc2)cc1)c1nnn[nH]1 [CGS-26303, (S)-2-diphenyl-4-yl-1-(1H-tetrazol-5-yl)-ethylaminomethyl phosphonic acid] | ECE | 
9 | O=P(CN[C@@H](Cc1ccc(-c2ccccc2)cc1)c1nnn[nH]1)(Oc1ccccc1)Oc1ccccc1 [CGS-26393, diphenyl[(S)-2-diphenyl-4-yl-1-(1H-tetrazol-5-yl)-ethylamino-methyl] phosphonate] | ECE | 
10 | CC(C)C[C@H](NC(=O)N1CCCCCC1)C(=O)NC(Cc1cn(C)c2ccccc12)C(=O)N[C@H](Cc1ccccn1)C(=O)O (stereo partly drawn) [FR139317, (R)-2-{(S)-2-([1-{hexahydro-1H-azepinyl}carbonyl]-amino-methyl-pentamoyl)}-amino-3-(3[1-methyl-1H-indolyl])propionylamino-3-(2-pyridyl)propionic acid] | ETA | 
11 | Cc1cc(C)cc(C(=O)N(C)[C@H](Cc2ccc(-c3ccccc3)cc2)C(=O)N[C@@H](Cc2c[nH]c3ccccc23)C(=O)O)c1 [IRL2500, N-(3,5-dimethylbenzoyl)-N-methyl-(D)-[(4-phenyl)-phenyl]-alanyl-L-tryptophan] | ETB | 
12 | Cc1cc(C)cc(C(=O)N(C)[C@H](Cc2ccc(-c3ccsc3)cc2)C(=O)N[C@@H](Cc2c[nH]c3ccccc23)C(=O)O)c1 [IRL2659, N-(3,5-dimethylbenzoyl)-N-methyl-(D)-[4-(3-thienyl)-phenyl]-alanyl-L-tryptophan] | ETB | 
13 | Cc1cc(C)cc(C(=O)N(C)[C@H](Cc2ccc(-c3ccno3)cc2)C(=O)N[C@@H](Cc2c[nH]c3ccccc23)C(=O)O)c1 [IRL2796, N-(3,5-dimethylbenzoyl)-N-methyl-(D)-[4-(5-isoxazolyl)-phenyl]-alanyl-L-tryptophan] | ETB | 
14 | CC(C)C[C@H](NP(=O)(O)CCc1ccc2ccccc2c1)C(=O)N[C@@H](Cc1c[nH]c2ccccc12)C(=O)O [N-2-(2-naphthyl)ethyl-phosphonyl-L-Leu-L-Trp] | ECE | 
15 | CC(C)C[C@H](NC(=O)N1CCCCCC1)C(=O)N[C@H](Cc1cn(C)c2ccccc12)C(=O)N[C@H](Cc1ccc(O)cc1)C(=O)O [PD151242, (N-[(hexahydro-1-azepinyl)carbonyl])-L-Leu(1-Me)D-Trp-D-Tyr] | ETA | 
16 | COc1ccc(C(=O)C(Cc2ccccc2)=C(C(=O)O)c2ccc3c(c2)OCO3)cc1 [PD155080, 2-benzo(1,3)dioxol-5-yl-3-benzyl-4-(4-methoxyphenyl)-4-oxobut-2-enoate] | ETA | 
17 | CCCOc1cccc(CC(C(=O)c2ccc(OC)cc2)=C(C(=O)O)c2ccc3c(c2)OCO3)c1 [PD155719, 2-(1,3-benzodioxol-5-yl)-4-(4-methoxyphenyl)-4-oxo-3[(3-propoxyphenyl)methyl]-2-butenoic acid] | ETA | 

Row | Molecule | Selectivity [1] | survival rate at 8 hours after reperfusion [2]
18 | COc1ccc(C(=O)C(Cc2cc(OC)c(OC)c(OC)c2)=C(C(=O)O)c2ccc3c(c2)OCO3)cc1 [PD156707, 2-benzo(1,3)dioxol-5-yl-4-(4-methoxyphenyl)-4-oxo-3-(3,4,5-trimethoxybenzyl)-but-2-enoate] | ETA | 
19 | CCCCCOc1c(OC)cc(CC2=C(c3ccc4c(c3)OCO4)C(=O)OC2(O)c2ccc(OC)cc2)cc1OC (centres unmarked) [PD160672, 3-benzo(1,3)dioxol-5-yl-(3,5-dimethoxy-4-pentyloxybenzyl)-5-hydroxy-5-(4-methoxyphenyl)-5H-furan-2-one] | ETA/ETB | 
20 | COc1cc(C2=C(CC3CCCCC3)C(O)(c3ccc4c(c3)OCCO4)OC2=O)cc2c1OCO2 (centres unmarked) [PD160874, 4-cryclohexyl-methyl-5-[2,3-dihydro-benzo(1,4)dioxin-6-yl]-5-hydroxy-3-[7-methoxybenzo(1,3)-dioxol-5-yl]-5H-furan-2-one] | ETA/ETB | 
21 | CC(C)C[C@H](NP(=O)(O)O[C@@H]1O[C@@H](C)[C@H](O)[C@@H](O)[C@H]1O)C(=O)N[C@@H](Cc1c[nH]c2ccccc12)C(=O)O [Phosphoramidon, N-phosphonyl L-Leu-L-Trp] | ECE | 
22 | COc1cccc(Oc2c(NS(=O)(=O)c3ccc(C(C)(C)C)cc3)ncnc2OCCO)c1 [Ro46-2005, 4-tert-butyl-N-[6-(2-hydroxyethoxy)-5-(3-methoxyphenoxy)-4-pyrimidinyl]-benzenesulphonamide] | ETA/ETB | 
23 | COc1ccc(-c2nc(NS(=O)(=O)c3ccc(C(C)(C)C)cc3)c(Oc3ccccc3OC)c(OC[C@@H](O)CO)n2)cc1 [Ro46-8443, 4-tert-butyl-N-[(S)6-(2,3-dihydroxypropoxy)-5-(2-methoxyphenoxy)-2-(4-methoxyphenyl)-pyrimidin-4-yl]-benzene sulphonamide] | ETB | 
24 | CC(C)C[C@H](NP(=O)(O)CC(O)CO)C(=O)N[C@@H](Cc1c[nH]c2ccccc12)C(=O)[O-].CC(C)C[C@H](NP(=O)(O)CC(O)CO)C(=O)N[C@@H](Cc1c[nH]c2ccccc12)C(=O)[O-].[Na+].[Na+] (stereo partly drawn) [S-17162, N-(2,3 dihydroxy propyl phosphonyl)-(S)-Leu-(S)-Trp-OH, disodium salt] | ECE | 
25 | CCCOc1ccc2c(c1)[C@@H](c1ccc(OC)cc1OCCO)[C@H](C(=O)O)[C@H]2c1ccc2c(c1)OCO2 [SB-217242, (+)-(1S,2R,3S)-3-[2-(2-hydroxyeth-1-yloxy)-4-methoxyphenyl]-1-(3,4-methylenedioxyphenyl)-5-(prop-1-yloxy)indan-2-carboxylic acid] | ETA/ETB | 
26 | CC(=O)NC(CSC12CCC3(O)CC(C)=CC(=O)C3(O)C1(O)C(=O)c1cccc(O)c1C2=O)C(=O)O (centres unmarked) [WS009A, 2-acetamido-3-[[1,4,4a,5,6,6a,7,12,12a,12b-decahydro-4a,8,12a,12b-tetra-hydroxy-3-methyl-1,7,12-trioxobenz[a]anthracen-6a-yl]-thio]propionic acid] | ETA | 
27 | COc1ccccc1Oc1c(NS(=O)(=O)c2ccc(C(C)(C)C)cc2)nc(-c2ncccn2)nc1OCCO [compound 2, 4-Tert-butyl-N-[6-(2-hydroxyethoxy)-5-(2-methoxyphenoxy)-2,2'-bipyrimidin-4-yl]-benzene sulfonamide] | ETA/ETB | 36%
28 | Ac-D-Bhg-Leu-Asp-Ile-Ile-Trp.2Na [PD145065] | ETA/ETB | 
29 | Ac-D-Dip-Leu-Asp-Ile-Ile-Trp.2Na [PD142893] | ETA/ETB | 
30 | Dmpc-.tau.-MeLeu-D-Trp(1-CO2 CH3)-D-Nle-OH [BQ-788] | ETB | 
31 | [Cys^11 -Cys^15 ]-ET-1(11-21) [IRL-1038] | ETB | 
32 | cyc(D-Trp-D-Asp-Pro-D-Val-Leu) [BQ-123] | ETA | 
33 | cyc(Gly-Asn-Trp-His-Gly-Thr-Ala-Pro-Asp)-Trp-Phe-Asn-Tyr-Tyr-Trp [RES-7011] | ETB | 
34 | cys(D-Sal-L-Pro-D-Val-L-Leu-D-Trp) [BQ-153] | ETA | 
